Among the test systems are A498 renal; LOX IMVI melanoma; CCRF-CEM leukemia; UACC-62 melanoma; HOP-92 NSCLC; SW-620 colon; RPMI-8226 leukemia; OVCAR-3 ovarian; NCI-H522 lung; HCC-2998 colon; SNB-19 CNS; IGROV1 ovarian; K-562 leukemia; RXF 393 renal; 786-0 renal; A549 NSCLC; SNB-75 CNS; HCT-15 colon; SN12C renal; SF-295 CNS.
Holding throughout (assay): DTP human tumour cell line panel, 48 h

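Test compounds were applied to cells in 96-well plates for 48 hours at 5 doses. Definition used: TGI = concentration required for complete inhibition of growth.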 Bounds are passed on as bounds.

With `Cc1ccccc1NC(=O)c1c(C)oc2c1C(=O)c1ccccc1C2=O`, the TGI with A498 renal is over 100 µM; in the test on LOX IMVI melanoma it was 41.3 µM; with CCRF-CEM leukemia, 48.1 µM; with UACC-62 melanoma, 49.8 µM; in the test on HOP-92 NSCLC, 65.2 µM; with SW-620 colon, over 57.9 µM. Besides, the TGI is 60.9 µM with RPMI-8226 leukemia; over 72.1 µM in the test with OVCAR-3 ovarian; 35.8 µM in the test with NCI-H522 lung; over 100 µM in the test on HCC-2998 colon; over 100 µM in the test on SNB-19 CNS; over 100 µM in the test on IGROV1 ovarian. Moreover, the TGI is 57.9 µM with K-562 leukemia; over 100 µM in the test with RXF 393 renal; over 100 µM in the test with 786-0 renal; over 96.1 µM in the test on A549 NSCLC; over 100 µM in the test on SNB-75 CNS; over 74.8 µM in the test with HCT-15 colon. The TGI with SN12C renal and in the test with SF-295 CNS was over 100 µM each time.

Turning to `CC1=CC[C@H](C(C)C)C(C(O)[C@@H](C)O[Si](c2ccccc2)(c2ccccc2)C(C)(C)C)C1=O` (stereo not given in full), the TGI amounted to 35.5 µM with A498 renal; 45.7 µM with LOX IMVI melanoma; 63.8 µM in the test with CCRF-CEM leukemia; 33.6 µM in the test on UACC-62 melanoma; 37.9 µM in the test on HOP-92 NSCLC; 65.5 µM with SW-620 colon. Besides, the concentration for total growth inhibition (TGI) turned out to be 48 µM in the test with RPMI-8226 leukemia; 35.5 µM in the test with OVCAR-3 ovarian; 37.6 µM in the test on NCI-H522 lung; 29 µM with HCC-2998 colon; 33.5 µM in the test on SNB-19 CNS; 64.8 µM with IGROV1 ovarian. In addition, the TGI with K-562 leukemia was over 100 µM; with RXF 393 renal, 30.8 µM; in the test with 786-0 renal it was 32.7 µM; in the test on A549 NSCLC it was 38.4 µM; in the test with SNB-75 CNS, 54.4 µM; in the test on HCT-15 colon, 36.4 µM. In addition, the results for the TGI with SN12C renal and in the test with SF-295 CNS were 37.9 µM and 33.1 µM, respectively.

For `O=C(c1c(F)c(F)c(F)c(F)c1F)N1CCN(C(=O)c2c(F)c(F)c(F)c(F)c2F)C1=S`, the TGI in the test with A498 renal was 32 µM; in the test on LOX IMVI melanoma, 6.57 µM; in the test with CCRF-CEM leukemia it was over 100 µM; with UACC-62 melanoma it was 9.33 µM; in the test with HOP-92 NSCLC it was 12.9 µM; in the test on SW-620 colon, 3.59 µM. Further, the TGI with RPMI-8226 leukemia was over 100 µM; in the test with OVCAR-3 ovarian, 12 µM; in the test with NCI-H522 lung, 1.65 µM; with HCC-2998 colon it was 22.7 µM; in the test on SNB-19 CNS, 30.1 µM; with IGROV1 ovarian it was 8.96 µM. Besides, the TGI in the test on K-562 leukemia was over 100 µM; in the test with RXF 393 renal it was 9.27 µM; in the test with 786-0 renal it was 27.3 µM; in the test on A549 NSCLC, 29.5 µM; in the test on SNB-75 CNS, 23 µM; with HCT-15 colon, 6.15 µM. The TGI was found to be 24.5 µM with SN12C renal and 28.5 µM in the test with SF-295 CNS.

Consider `NC(=O)c1cc2ccc(O)cc2o/c1=N/NC(=O)c1ccccc1`, for which the TGI in the test with A498 renal, with LOX IMVI melanoma, in the test on CCRF-CEM leukemia, with UACC-62 melanoma, in the test with HOP-92 NSCLC and with SW-620 colon was over 100 µM in each case. Also, the total growth inhibition concentration (TGI) with RPMI-8226 leukemia, in the test on OVCAR-3 ovarian, in the test with NCI-H522 lung, in the test on HCC-2998 colon, with SNB-19 CNS and in the test with IGROV1 ovarian was over 100 µM throughout. In addition, the TGI in the test with K-562 leukemia, in the test with RXF 393 renal, in the test with 786-0 renal, with A549 NSCLC, in the test on SNB-75 CNS and with HCT-15 colon was over 100 µM throughout. Besides, the TGI in the test on SN12C renal and in the test on SF-295 CNS was over 100 µM throughout.

As to `Oc1cc2c3c(c1)CCCN3CCC2`, the TGI in the test on A498 renal, in the test on LOX IMVI melanoma, in the test with CCRF-CEM leukemia, in the test with UACC-62 melanoma, with HOP-92 NSCLC and with SW-620 colon was over 10 µM each time. In addition, the concentration for total growth inhibition (TGI) in the test with RPMI-8226 leukemia, with OVCAR-3 ovarian, with NCI-H522 lung, with HCC-2998 colon, in the test with SNB-19 CNS and in the test with IGROV1 ovarian was over 10 µM in each case. Moreover, the TGI with K-562 leukemia, with RXF 393 renal, in the test with 786-0 renal, in the test on A549 NSCLC, in the test on SNB-75 CNS and in the test with HCT-15 colon was over 10 µM each time. The TGI with SN12C renal and in the test with SF-295 CNS was over 10 µM throughout.

As for `COc1ccc(-c2c3c(cc4cc5c(cc24)OCO5)C(=O)OC3)cc1OC`, the TGI in the test with A498 renal was over 49.6 µM; with LOX IMVI melanoma, 0.0663 µM; in the test with CCRF-CEM leukemia, over 52.1 µM; in the test on UACC-62 melanoma, 1.84 µM; with HOP-92 NSCLC, over 23.4 µM; in the test on SW-620 colon, 11.7 µM. The TGI with RPMI-8226 leukemia is 9.98 µM; with OVCAR-3 ovarian it was 18.8 µM; in the test with NCI-H522 lung it was 5.95 µM; in the test with HCC-2998 colon, 13.9 µM; in the test on SNB-19 CNS, 52 µM; with IGROV1 ovarian, over 100 µM. Moreover, the total growth inhibition concentration (TGI) in the test with K-562 leukemia was over 36.8 µM; in the test on RXF 393 renal it was 35.8 µM; in the test with 786-0 renal, 13.9 µM; in the test with A549 NSCLC it was over 100 µM; in the test on SNB-75 CNS, 44.7 µM; in the test with HCT-15 colon it was 18.3 µM. In addition, the TGI was over 53.1 µM in the test with SN12C renal and 0.922 µM in the test with SF-295 CNS.

Turning to `COC(=O)C1=CSC2(S1)C(C(=O)OC)=CSc1c2ssc1=O` (stereo not given), the TGI in the test with A498 renal came to 12.5 µM; in the test on LOX IMVI melanoma it was 3.35 µM; in the test on CCRF-CEM leukemia, 2.47 µM; with UACC-62 melanoma it was 4.16 µM; in the test on HOP-92 NSCLC, 4.27 µM; in the test with SW-620 colon it was 2.93 µM. Further, the TGI is 4.24 µM in the test with RPMI-8226 leukemia; 3.55 µM in the test on OVCAR-3 ovarian; 3.14 µM in the test on NCI-H522 lung; 8.82 µM with HCC-2998 colon; 16.1 µM with SNB-19 CNS; 2.9 µM in the test on IGROV1 ovarian. Besides, the TGI in the test on K-562 leukemia was over 23 µM; in the test on RXF 393 renal, 3.62 µM; in the test on 786-0 renal, 2.96 µM; in the test on A549 NSCLC it was 28.3 µM; with SNB-75 CNS it was 8.16 µM; with HCT-15 colon it was 3.31 µM. In addition, the TGI in the test on SN12C renal came to 5.1 µM; with SF-295 CNS, 40.5 µM.

The term TGI denotes the concentration at which net growth stops.

Values taken from PubChem BioAssay (NCI).
